Measurements reported in patent publication US11739074B2, “Ras inhibitors” (Revolution Medicines, Inc., priority 2019, dated 2023).
Like-named read-outs stand apart in the source and are kept apart here.

Key:
Type in all cases: cell-based
AsPC-1 (K-Ras G12D) [1] = assay: CellTiter-Glo cell viability assay, AsPC-1; details: Homo sapiens, ASPC1, 120 h
In short: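 Viability is scored by CellTiter-Glo luminescence on day 5 of compound treatment, relative to vehicle (DMSO) wells set as 100%, with a four-parameter logistic fit.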

AsPC-1 (K-Ras G12D) [2] = assay: Potency assay: pERK in AsPC-1 cells; details: Homo sapiens
NCI-H358 (K-Ras G12C) = assay: CellTiter-Glo cell viability assay, H358; details: Homo sapiens, NCI-H358, 120 h
Method: Determination of Cell Viability in RAS Mutant Cancer Cell Lines
Protocol: CellTiter-Glo® Cell Viability Assay
Note—The following protocol describes a procedure for monitoring cell viability of K-Ras mutant cancer cell lines in response to a compound of the invention. Other RAS isoforms may be employed, though the number of cells to be seeded will vary based on cell line used.
Test compounds (132.5 nL) were directly dispensed into the assay plates containing cells. […] On day 5, assay plates and their contents were equilibrated to room temperature for approximately 30 minutes. […] Luminescence was measured using the PerkinElmer Enspire. Data were normalized by the following: (Sample signal/Avg. DMSO)*100. The data were fit using a four-parameter logistic fit.

[3] = AsPC-1, K-Ras G12D, 5-day treatment, read-out: AsPC-1 Cell Viability IC50
[4] = ASPC1, AsPC-1 cells, K-Ras G12D, read-out: pERK EC50 (AsPC-1 KRAS G12D)
[5] = NCI-H358, K-Ras G12C, 5-day treatment, read-out: H358 Cell Viability IC50
[6] = read-out: AsPC-1 Cell Viability IC50, AsPC-1, K-Ras G12D, 5-day treatment
[7] = ASPC1, read-out: pERK EC50 (AsPC-1 KRAS G12D)
[8] = read-out: H358 Cell Viability IC50, NCI-H358, K-Ras G12C, 5-day treatment

SMILES | IC50 (AsPC-1 (K-Ras G12D) [1]; [3]) | EC50 (AsPC-1 (K-Ras G12D) [2]; [4]) | IC50 (NCI-H358 (K-Ras G12C); [5]) | IC50 (AsPC-1 (K-Ras G12D) [1]; [6]) | EC50 (AsPC-1 (K-Ras G12D) [2]; [7]) | IC50 (NCI-H358 (K-Ras G12C); [8])
CCn1c(-c2cccnc2[C@H](C)OC)c2c3cc(ccc31)-c1cc(O)cc(c1)C[C@H](NC(=O)[C@H](C(C)C)N(C)C(=O)[C@H]1CCN(C(=O)[C@H]3CN3)C1)C(=O)N1CCC[C@H](N1)C(=O)OCC(C)(C)C2 (single isomer, unassigned) [Compound 43A] | 100 to 1000 nM | < 5000 nM | < 10 nM | – | – | –
CCn1c(-c2cccnc2[C@H](C)OC)c2c3cc(ccc31)-c1cc(O)cc(c1)C[C@H](NC(=O)[C@H](C(C)C)N(C)C(=O)[C@H]1CCN(S(=O)(=O)[C@@H]3CN3C)C1)C(=O)N1CCC[C@H](N1)C(=O)OCC(C)(C)C2 (single isomer, unassigned) [Compound 56] | 1000 to 10000 nM | < 5000 nM | 100 to 1000 nM | – | – | –
CCn1c(-c2cccnc2[C@H](C)OC)c2c3cc(ccc31)-c1cc(O)cc(c1)C[C@H](NC(=O)[C@H](C1CCCC1)N(C)C(=O)CN(C)C(=O)[C@H]1N[C@H]1C1(OC)CC1)C(=O)N1CCC[C@H](N1)C(=O)OCC(C)(C)C2 (single isomer, unassigned) [Compound 322] | 1000 to 10000 nM | < 5000 nM | 10 to 100 nM | – | – | –
CCn1c(-c2cccnc2[C@H](C)OC)c2c3cc(ccc31)-c1cc(O)cc(c1)C[C@H](NC(=O)[C@H](C1CCCC1)N(C)C(=O)CN(C)C(=O)[C@@H]1N[C@@H]1C1(OC)CC1)C(=O)N1CCC[C@H](N1)C(=O)OCC(C)(C)C2 (single isomer, unassigned) [Compound 323] | 100 to 1000 nM | < 5000 nM | 10 to 100 nM | – | – | –
CCn1c(-c2cnccc2COC)c2c3cc(ccc31)-c1cc(O)cc(c1)C[C@H](NC(=O)[C@H](C(C)C)N(C)C(=O)CN(C)C(=O)[C@@H]1N[C@H]1c1ccccc1)C(=O)N1CCC[C@H](N1)C(=O)OCC(C)(C)C2 [Compound 11] | – | – | – | 1000 to 10000 nM | < 5000 nM | 100 to 1000 nM
CCn1c(-c2cnccc2COC)c2c3cc(ccc31)-c1cc(O)cc(c1)C[C@H](NC(=O)[C@H](C(C)C)N(C)C(=O)CN(C)C(=O)[C@H]1N[C@@H]1c1ccccc1)C(=O)N1CCC[C@H](N1)C(=O)OCC(C)(C)C2 [Compound 12] | – | – | – | 100 to 1000 nM | < 5000 nM | 100 to 1000 nM
CCn1c(-c2cccnc2[C@H](C)OC)c2c3cc(ccc31)-c1cc(O)cc(c1)C[C@H](NC(=O)[C@H](C(C)C)N(C)C(=O)CN(C)C(=O)[C@H]1CN1)C(=O)N1CCC[C@H](N1)C(=O)OCC(C)(C)C2 [Compound 42A] | – | – | – | 100 to 1000 nM | < 5000 nM | < 10 nM
CCn1c(-c2cccnc2[C@H](C)OC)c2c3cc(ccc31)-c1cc(O)cc(c1)C[C@H](NC(=O)[C@H](C(C)C)N1CCC3(CCN(C(=O)[C@H]4CN4)C3)C1=O)C(=O)N1CCC[C@H](N1)C(=O)OCC(C)(C)C2 (stereo partly shown) [Compound 59] | 100 to 1000 nM | < 5000 nM | < 10 nM | – | – | –
CCn1c(-c2cccnc2[C@H](C)OC)c2c3cc(ccc31)-c1cccc(c1)C[C@H](NC(=O)[C@H](C(C)C)N(C)C(=O)[C@H]1C[C@H](N=C=NCc3ccccc3OC)C1)C(=O)N1CCC[C@H](N1)C(=O)OCC(C)(C)C2 [Compound 77] | 100 to 1000 nM | < 5000 nM | 100 to 1000 nM | – | – | –
CCn1c(-c2cccnc2[C@H](C)OC)c2c3cc(ccc31)-c1cc(O)cc(c1)C[C@H](NC(=O)[C@H](C(C)C)N(C)C(=O)c1ncc(NC(=O)[C@@H]3CN3)n1C)C(=O)N1CCC[C@H](N1)C(=O)OCC(C)(C)C2 [Compound 83] | 1000 to 10000 nM | < 5000 nM | 10 to 100 nM | – | – | –
CCn1c(-c2cccnc2[C@H](C)OC)c2c3cc(ccc31)-c1cc(O)cc(c1)C[C@H](NC(=O)[C@H](C(C)C)N(C)C(=O)CN(C)C(=O)[C@@H]1N[C@H]1COC)C(=O)N1CCC[C@H](N1)C(=O)OCC(C)(C)C2 [Compound 85] | – | – | – | 1000 to 10000 nM | < 5000 nM | 10 to 100 nM
CCn1c(-c2cccnc2[C@H](C)OC)c2c3cc(ccc31)-c1cc(O)cc(c1)C[C@H](NC(=O)[C@H](C(C)C)N(C)C(=O)CN(C)C(=O)C1CN1CCOC)C(=O)N1CCC[C@H](N1)C(=O)OCC(C)(C)C2 (stereo partly shown) [Compound 90] | – | – | – | 100 to 1000 nM | < 5000 nM | < 10 nM
CCn1c(-c2cnccc2COC)c2c3cc(ccc31)-c1cc(O)cc(c1)C[C@H](NC(=O)[C@H](C(C)C)N(C)C(=O)CN(C)C(=O)[C@@H]1N[C@H]1c1ccc(OC)cc1)C(=O)N1CCC[C@H](N1)C(=O)OCC(C)(C)C2 [Compound 96] | – | – | – | 1000 to 10000 nM | < 5000 nM | 1000 to 10000 nM
CCn1c(-c2cccnc2[C@H](C)OC)c2c3cc(ccc31)-c1cc(O)cc(c1)C[C@H](NC(=O)[C@H](C(C)C)N(C)C(=O)[C@@H]1CN1)C(=O)N1CCC[C@H](N1)C(=O)OCC(C)(C)C2 [Compound 100] | 100 to 1000 nM | < 5000 nM | 10 to 100 nM | – | – | –
CCn1c(-c2cccnc2[C@H](C)OC)c2c3cc(ccc31)-c1cc(O)cc(c1)C[C@H](NC(=O)[C@H](C(C)C)N(C)C(=O)[C@H](C)N(C)C(=O)[C@H]1CN1)C(=O)N1CCC[C@H](N1)C(=O)OCC(C)(C)C2 [Compound 102] | – | – | – | 100 to 1000 nM | < 5000 nM | 10 to 100 nM
CCn1c(-c2cnccc2COC)c2c3cc(ccc31)-c1cc(O)cc(c1)C[C@H](NC(=O)[C@H](C(C)C)N(C)C(=O)CN(C)C(=O)[C@@H]1N[C@@H]1C1CC1)C(=O)N1CCC[C@H](N1)C(=O)OCC(C)(C)C2 [Compound 103] | – | – | – | 100 to 1000 nM | < 5000 nM | 100 to 1000 nM
CCn1c(-c2cccnc2[C@H](C)OC)c2c3cc(ccc31)-c1cccc(c1)C[C@H](NC(=O)[C@H](C(C)C)N(C)C(=O)CN(C)C(=O)[C@H]1CN1)C(=O)N1CCC[C@H](N1)C(=O)OCC(C)(C)C2 [Compound 107] | – | – | – | 1000 to 10000 nM | < 5000 nM | 100 to 1000 nM
CCn1c(-c2cccnc2[C@H](C)OC)c2c3cc(ccc31)-c1csc(n1)C[C@H](NC(=O)[C@H](C1CCCC1)N(C)C(=O)CN(C)C(=O)[C@H]1CN1)C(=O)N1CCC[C@H](N1)C(=O)OCC(C)(C)C2 [Compound 132] | 1000 to 10000 nM | < 5000 nM | 10 to 100 nM | – | – | –
CCn1c(-c2cccnc2[C@H](C)OC)c2c3cc(ccc31)-c1cc(O)cc(c1)C[C@H](NC(=O)[C@H](C(C)C)N(C)C(=O)CN(C)C(=O)[C@H]1N[C@@H]1C1CC1)C(=O)N1CCC[C@H](N1)C(=O)OCC(C)(C)C2 [Compound 136] | – | – | – | – | < 5000 nM | < 10 nM
CCn1c(-c2cccnc2[C@H](C)OC)c2c3cc(ccc31)-c1cc(O)cc(c1)C[C@H](NC(=O)[C@H](C(C)C)N(C)C(=O)CN(C)C(=O)[C@@H]1CN1CCCOC)C(=O)N1CCC[C@H](N1)C(=O)OCC(C)(C)C2 (stereo partly shown) [Compound 137] | – | – | – | 100 to 1000 nM | < 5000 nM | < 10 nM
CCn1c(-c2cccnc2[C@H](C)OC)c2c3cc(ccc31)-c1cc(O)cc(c1)C[C@H](NC(=O)[C@H](C(C)C)N(C)C(=O)CNC(=O)[C@@H]1N[C@@H]1C1CC1)C(=O)N1CCC[C@H](N1)C(=O)OCC(C)(C)C2 [Compound 141] | – | – | – | 100 to 1000 nM | < 5000 nM | 100 to 1000 nM
CCn1c(-c2cccnc2[C@H](C)OC)c2c3cc(ccc31)-c1cc(O)cc(c1)C[C@H](NC(=O)[C@H](C(C)C)N(C)C(=O)CN(C)C(=O)[C@H]1CN1C(C)C)C(=O)N1CCC[C@H](N1)C(=O)OCC(C)(C)C2 (stereo partly shown) [Compound 142] | – | – | – | 100 to 1000 nM | < 5000 nM | < 10 nM
CCn1c(-c2cccnc2[C@H](C)OC)c2c3cc(ccc31)-c1cc(O)cc(c1)C[C@H](NC(=O)[C@H](C(C)C)N1CC[C@]3(CCN(C(=O)[C@H]4CN4)C3)C1=O)C(=O)N1CCC[C@H](N1)C(=O)OCC(C)(C)C2 [Compound 146] | 100 to 1000 nM | < 5000 nM | < 10 nM | – | – | –
CCn1c(-c2cccnc2[C@H](C)OC)c2c3cc(ccc31)-c1cc(O)cc(c1)C[C@H](NC(=O)[C@H](C(C)C)N(C)C(=O)CN(C)C(=O)[C@H]1CN1Cc1ccccc1F)C(=O)N1CCC[C@H](N1)C(=O)OCC(C)(C)C2 (stereo partly shown) [Compound 155] | – | – | – | 100 to 1000 nM | < 5000 nM | < 10 nM
CCn1c(-c2cccnc2[C@H](C)OC)c2c3cc(ccc31)-c1cc(O)cc(c1)C[C@H](NC(=O)[C@H](C(C)C)N(C)C(=O)CN(C)C(=O)[C@H]1CN1Cc1ccccc1CO)C(=O)N1CCC[C@H](N1)C(=O)OCC(C)(C)C2 (stereo partly shown) [Compound 156] | – | – | – | 100 to 1000 nM | < 5000 nM | < 10 nM
CCn1c(-c2cnccc2COC)c2c3cc(ccc31)-c1cc(O)cc(c1)C[C@H](NC(=O)[C@H](C(C)C)N(C)C(=O)[C@H]1CCN(C(=O)[C@@H]3CO3)C1)C(=O)N1CCC[C@H](N1)C(=O)OCC(C)(C)C2 [Example 31, (3S)—N-((2S)-1-(((6^3S,4S)-1^1-ethyl-2^5-hydroxy-1^2-(4-(methoxymethyl)pyridin-3-yl)-10,10-dimethyl-5,7-dioxo-6^1,6^2,6^3,6^4,6^5,6^6-hexahydro-1^1H-8-oxa-1(5,3)-indola-6(1,3)-pyridazina-2(1,3)-benzenacycloundecaphane-4-yl)amino)-3-methyl-1-oxobutan-2-yl)-N-methyl-1-((S)-oxirane-2-carbonyl)pyrrolidine-3-carboxamide] | > 10000 nM | – | 1000 to 10000 nM | – | – | –
